From patent publication US9796700B2 (Celgene CAR LLC, priority 2013, dated 2017)
pIC50: −log10 of the molar value.

Legend:
[1] = biological target: Erk1 (Homo sapiens (Human), UniProt P27361); assay: Protein Mass Modification Assay (intact protein MALDI); format: binding
Summary of the method: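 Percent covalent modification comes from the intact-protein MALDI centroid mass shift, treated versus control, divided by compound MW. Before analysis, human Erk1 was exposed to compound at 10-fold excess over protein for 60 min at room temperature.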

[2] = biological target: MEK1 activated ERK1 (Homo sapiens (Human), UniProt P27361); assay: Omnia continuous-read kinase assay for potency against MEK1 activated ERK1; format: biochemical; conditions: MEK1 activated ERK1, WT, ATP at KM
MEK1 activated ERK1, sequence (P27361 whole entry): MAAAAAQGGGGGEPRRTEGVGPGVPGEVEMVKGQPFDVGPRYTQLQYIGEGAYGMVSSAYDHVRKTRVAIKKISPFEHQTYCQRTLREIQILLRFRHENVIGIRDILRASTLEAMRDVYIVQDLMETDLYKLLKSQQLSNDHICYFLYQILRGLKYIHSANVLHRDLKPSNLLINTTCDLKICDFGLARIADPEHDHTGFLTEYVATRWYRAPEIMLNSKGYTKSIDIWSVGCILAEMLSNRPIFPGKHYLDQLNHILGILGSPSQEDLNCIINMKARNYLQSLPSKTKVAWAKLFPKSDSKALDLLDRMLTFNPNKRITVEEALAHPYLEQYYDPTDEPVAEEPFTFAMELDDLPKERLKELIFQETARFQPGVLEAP
Summary of the method: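 Apparent IC50 came from initial reaction slopes (RFU vs time) plotted against log inhibitor with a variable-slope fit. Reactions were started with ERK1 (4 nM final) added to 50 μM ATP, roughly at its appKM, and 10 μM Sox-conjugated ST17 peptide in 20 mM Tris pH 7.5, 5 mM MgCl2. Fluorescence was monitored every 71 seconds.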

Erk1, sequence (P27361 whole entry, looked up): as the sequence (P27361 whole entry) above

| SMILES | ERK1 Mass Mod (%) [1] | pIC50 [2] |
| --- | --- | --- |
| C=CC(=O)N(C)c1ccccc1Nc1nc(Nc2cc(C(=O)NOCCO)ccc2C#N)ncc1Cl [Compound I-204, 3-((5-chloro-4-((2-(N-methylacrylamido)phenyl)amino)pyrimidin-2-yl)amino)-4-cyano-N-(2-hydroxyethoxy)benzamide] | F (provided a mass modification of 31-69%) | < 6.00 |
| C=CS(=O)(=O)N[C@@H]1CCCC[C@H]1Nc1nc(N[C@H]2CCCN(C(=O)CO)C2)ncc1C(F)(F)F [Compound I-36, N-((1R,2R)-2-((2-(((S)-1-(2-Hydroxyacetyl)piperidin-3-yl)amino)-5-(trifluoromethyl)pyrimidin-4-yl)amino)cyclohexyl)ethenesulfonamide] | E (provided a mass modification of ≧70%) | > 7.00 |
| C=CC(=O)Nc1ccccc1Nc1nc(N[C@@H]2CCN(C(=O)CO)C2)ncc1C(F)(F)F [Compound I-62, (R)—N-(2-((2-((1-(2-Hydroxyacetyl)pyrrolidin-3-yl)amino)-5-(trifluoromethyl)pyrimidin-4-yl)amino)phenyl)acrylamide] | F (provided a mass modification of 31-69%) | < 6.00 |
| CN(C)CCC(=O)Nc1ccccc1Nc1nc(N[C@H]2CCCN(C(=O)CO)C2)ncc1C(F)(F)F [Compound I-276, (S)-3-(dimethylamino)-N-(2-((2-((1-(2-hydroxyacetyl)piperidin-3-yl)amino)-5-(trifluoromethyl)pyrimidin-4-yl)amino)phenyl)propanamide] | G (proived a mass modification ≦30%) | < 6.00 |
| C=CC(=O)Nc1ccccc1Oc1ccnc(Nc2ccc(N3CCN(C(C)=O)CC3)cc2OC)n1 [Compound I-261, N-(2-((2-((4-(4-acetylpiperazin-1-yl)-2-methoxyphenyl)amino)pyrimidin-4-yl)oxy)phenyl)acrylamide] | G (proived a mass modification ≦30%) | < 6.00 |
| C=CC(=O)Nc1cc(C)ccc1Nc1nc(Nc2cc(OC)nc(N3CC(O)C3)c2)ncc1C(F)(F)F [Compound I-328, N-(2-((2-((2-(3-hydroxyazetidin-1-yl)-6-methoxypyridin-4-yl)amino)-5-(trifluoromethyl)pyrimidin-4-yl)amino)-5-methylphenyl)acrylamide] | E (provided a mass modification of ≧70%) | > 7.00 |
| C=CC(=O)Nc1cc(C)ccc1Nc1nc(N[C@H]2CCCN(C(C)=O)C2)ncc1C(F)(F)F [Compound I-19, (S)—N-(2-((2-((1-Acetylpiperidin-3-yl)amino)-5-(trifluoromethyl)pyrimidin-4-yl)amino)-5-methylphenyl)acrylamide] | E (provided a mass modification of ≧70%) | > 7.00 |
| C=CC(=O)Nc1ccccc1Nc1nc(N[C@H]2CCCN(C(=O)CCCC(=O)NCCCOCCOCCOCCCNC(=O)CCCC[C@@H]3SC[C@@H]4NC(=O)N[C@@H]43)C2)ncc1Cl [Compound I-303, 5-((S)-3-((4-((2-acrylamidophenyl)amino)-5-chloropyrimidin-2-yl)amino)piperidin-1-yl)-5-oxo-N-(15-oxo-19-((3aS,4S,6aR)-2-oxohexahydro-1H-thieno[3,4-d]imidazol-4-yl)-4,7,10-trioxa-14-azanonadecyl)pentanamide] | E (provided a mass modification of ≧70%) | < 6.00 |
| Cc1ccc(C(N)=O)cc1Nc1ncc(Cl)c(Nc2ccccc2NC(=O)/C=C/CN(C)C)n1 [Compound I-218, (E)-3-((5-chloro-4-((2-(4-(dimethylamino)but-2-enamido)phenyl)amino)pyrimidin-2-yl)amino)-4-methylbenzamide] | G (proived a mass modification ≦30%) | < 6.00 |
| C=CC(=O)Nc1ccccc1Nc1nc(N[C@@H]2CCC[C@H](C(N)=O)C2)ncc1C(F)(F)F [Compound I-7, (1S,3R)-3-((4-((2-acrylamidophenyl)amino)-5-(trifluoromethyl)pyrimidin-2-yl)amino)cyclohexanecarboxamide] | E (provided a mass modification of ≧70%) | > 7.00 |
| C=CC(=O)Nc1cc(OC)ccc1Nc1nc(Nc2ccc(N3CCC[C@H]3CO)cc2C(F)(F)F)ncc1Cl [Compound I-158, (S)—N-(2-((5-chloro-2-((4-(2-(hydroxymethyl)pyrrolidin-1-yl)-2-(trifluoromethyl)phenyl)amino)pyrimidin-4-yl)amino)-5-methoxyphenyl)acrylamide] | F (provided a mass modification of 31-69%) | < 6.00 |
| C=CC(=O)Nc1ccccc1Nc1nc(Nc2ccc(OCCCNC(=O)CCCC(=O)NCCCOCCOCCOCCCNC(=O)CCCC[C@H]3SC[C@H]4NC(=O)N[C@H]43)cc2OC)ncc1Cl [Compound I-302, N^1-(3-(4-((4-((2-acrylamidophenyl)amino)-5-chloropyrimidin-2-yl)amino)-3-methoxyphenoxy)propyl)-N^5-(15-oxo-19-((3aR,4R,6aS)-2-oxohexahydro-1H-thieno[3,4-d]imidazol-4-yl)-4,7,10-trioxa-14-azanonadecyl)glutaramide] | E (provided a mass modification of ≧70%) | < 6.00 |
| C=CC(=O)Nc1ccccc1Nc1nc(N[C@H]2CCCN(C(N)=O)C2)ncc1C(F)(F)F [Compound I-18, (S)-3-((4-((2-Acrylamidophenyl)amino)-5-(trifluoromethyl)pyrimidin-2-yl)amino)piperidine-1-carboxamide] | E (provided a mass modification of ≧70%) | > 7.00 |

Now from value to compound:

| ERK1 Mass Mod (%) [1] | pIC50 [2] | SMILES |
| --- | --- | --- |
| E (provided a mass modification of ≧70%) | > 7.00 | C=CC(=O)Nc1ccccc1Nc1nc(Nc2cc(OC)nc(N3CCCC3)c2)ncc1C(F)(F)F [Compound I-281, N-(2-((2-((2-Methoxy-6-(pyrrolidin-1-yl)pyridin-4-yl)amino)-5-(trifluoromethyl)pyrimidin-4-yl)amino)phenyl)acrylamide] |
| E (provided a mass modification of ≧70%) | > 7.00 | C=CC(=O)Nc1cc(OC)ccc1Nc1nc(Nc2cc(OC)nc(N3CCN(C)CC3)c2)ncc1C(F)(F)F [Compound I-334, N-(5-methoxy-2-((2-((2-methoxy-6-(4-methylpiperazin-1-yl)pyridin-4-yl)amino)-5-(trifluoromethyl)pyrimidin-4-yl)amino)phenyl)acrylamide] |
| E (provided a mass modification of ≧70%) | < 6.00 | C=CC(=O)Nc1ccccc1Nc1nc(Nc2ccc(NC(=O)OC)cc2OC)ncc1Cl [Compound I-184, methyl (4-((4-((2-acrylamidophenyl)amino)-5-chloropyrimidin-2-yl)amino)-3-methoxyphenyl)carbamate] |
| G (proived a mass modification ≦30%) | < 6.00 | C=CC(=O)Nc1cc(OC)ccc1Nc1nc(Nc2ccc(N3CCNCC3)cc2C#N)ncc1Cl [Compound I-161, N-(2-((5-chloro-2-((2-cyano-4-(piperazin-1-yl)phenyl)amino)pyrimidin-4-yl)amino)-5-methoxyphenyl)acrylamide] |
| E (provided a mass modification of ≧70%) | < 6.00 | C=CC(=O)Nc1cc(C)ccc1Nc1nc(Nc2cc(OC)nc(N3CCC(O)CC3)c2)ncc1C(F)(F)F [Compound I-332, N-(2-((2-((2-(4-hydroxypiperidin-1-yl)-6-methoxypyridin-4-yl)amino)-5-(trifluoromethyl)pyrimidin-4-yl)amino)-5-methylphenyl)acrylamide] |
